The text below walks through data of PMC10046369, “Low-Affinity/High-Selectivity Dopamine Transport Inhibition Sufficient to Rescue Cognitive Functions in the Aging Rat” (Biomolecules, 2023).

What all share (test): cell-based
Holding throughout (set-up): Eurofins Cerep functional GPCR antagonist assay, reference antagonists

Test [1] addresses T1, 5HT1B (h) (Homo sapiens, UniProt P28222).
T1 construct: gene HTR1B

For test [2], the target named is T1, 5HT1B (h). This is another data set of the same source.
Test [3] addresses T2, P2Y1 (h) (Homo sapiens, UniProt P47900).
T2 construct: gene P2RY1

Test [4] has as its target T2, P2Y1 (h). This is another data set of the same source.
For test [5], the target named is T3, 5-HT2B (h) (Homo sapiens, UniProt P41595).
T3 construct: gene HTR2B
T3 sequence (P41595 whole entry): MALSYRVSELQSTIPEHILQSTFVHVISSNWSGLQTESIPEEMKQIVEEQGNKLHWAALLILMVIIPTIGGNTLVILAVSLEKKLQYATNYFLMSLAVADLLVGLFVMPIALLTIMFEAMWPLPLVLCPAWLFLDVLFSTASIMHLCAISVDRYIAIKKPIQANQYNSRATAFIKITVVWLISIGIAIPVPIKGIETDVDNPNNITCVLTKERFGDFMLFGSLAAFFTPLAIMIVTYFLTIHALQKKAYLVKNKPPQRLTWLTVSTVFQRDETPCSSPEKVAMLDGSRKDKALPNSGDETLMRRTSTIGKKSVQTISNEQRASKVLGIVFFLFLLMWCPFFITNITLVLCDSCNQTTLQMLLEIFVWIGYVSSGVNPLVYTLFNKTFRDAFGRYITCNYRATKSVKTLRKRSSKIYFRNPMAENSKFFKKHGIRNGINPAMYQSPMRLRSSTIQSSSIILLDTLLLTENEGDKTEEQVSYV

Test [6] addresses T3, 5-HT2B (h). This is another data set of the same source.

T2 sequence (P47900 whole entry): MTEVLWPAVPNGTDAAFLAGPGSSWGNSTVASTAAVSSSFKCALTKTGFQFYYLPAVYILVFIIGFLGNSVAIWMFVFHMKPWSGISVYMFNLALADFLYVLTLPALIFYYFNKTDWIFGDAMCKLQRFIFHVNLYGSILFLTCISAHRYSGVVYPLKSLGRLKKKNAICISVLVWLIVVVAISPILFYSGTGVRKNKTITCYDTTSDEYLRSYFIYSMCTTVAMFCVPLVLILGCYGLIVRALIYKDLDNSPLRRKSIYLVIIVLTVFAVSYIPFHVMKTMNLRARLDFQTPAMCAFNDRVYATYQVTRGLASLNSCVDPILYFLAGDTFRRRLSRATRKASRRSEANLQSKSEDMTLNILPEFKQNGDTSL
T1 sequence (P28222 whole entry): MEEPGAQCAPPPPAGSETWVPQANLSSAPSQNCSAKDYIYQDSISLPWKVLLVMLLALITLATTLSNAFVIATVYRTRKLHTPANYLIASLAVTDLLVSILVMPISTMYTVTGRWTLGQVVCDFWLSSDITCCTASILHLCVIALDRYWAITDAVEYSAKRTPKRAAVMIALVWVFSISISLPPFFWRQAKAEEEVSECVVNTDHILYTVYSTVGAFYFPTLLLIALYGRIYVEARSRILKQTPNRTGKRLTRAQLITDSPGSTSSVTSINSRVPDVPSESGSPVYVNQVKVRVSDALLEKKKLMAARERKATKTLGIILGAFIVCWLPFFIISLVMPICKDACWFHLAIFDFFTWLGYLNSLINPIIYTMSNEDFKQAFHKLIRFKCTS

As usually defined, the IC50 is the concentration at which inhibition is half-maximal. Higher therefore signals weaker potency. In general, Kb refers to the equilibrium dissociation constant of an antagonist, usually derived from a functional assay. On to `CN(C)CCCc1cc(C(=O)Nc2ccc(-c3ccncc3)cc2)ccc1O` [GR55562], for which the IC50 against 5HT1B (h) [1] stood at 69 nM. At 5HT1B (h) [2], the Kb was determined as 11 nM.
The molecule `CNc1nc(I)nc2c1ncn2[C@H]1C[C@H](OP(=O)(O)O)[C@]2(COP(=O)(O)O)C[C@H]12` [MRS 2500] showed a 50% inhibitory concentration (IC50) against P2Y1 (h) [3] of 1.9 nM. The molecule further had a Kb at P2Y1 (h) [4] of 0.43 nM.
`Cn1ccc2cc3c(cc21)CCN3C(=O)Nc1cccnc1` [SB 206553] yielded a Kb at 5-HT2B (h) [5] of 2.9 nM. This molecule gave an IC50 on 5-HT2B (h) [6] of 19 nM.
